Test results published in patent publication EP4699605A1, “USE OF NOVEL COMPOUND FOR TREATING INTRACTABLE DISEASES” (YJ Cerapeutics Inc., priority 2023, dated 2024).

Experiments:
microglia = assay: Microglial activation in spinal cord of SNI model (OX-42 staining, p-p38MAPK Western blot); type: in vivo, Sprague-Dawley rats
Description: (§1) To be used as a peripheral nerve injury animal model, a sciatic nerve injury (SNI) model was prepared (FIG. 1C). Specifically, 200 to 220 g of male adult Sprague-Dawley rats were anesthetized by intraperitoneal injection of chloral hydrate (500 mg/kg), and then three terminal branches (tibial, common peroneal, and sural nerves) of the right sciatic nerve were approached, and the tibia nerve and the peroneal nerve were tightly ligated with 4-0 silk, and neurectomy was performed at a distal 3 mm position of the ligation site. At this time, a Sham group was a group that exposed only the sciatic nerve without damage.
To analyze the activation of microglia in the spinal cord, which were known to play an important role in the induction/persistence of neuropathic pain, 4 weeks after nerve injury in the SNI animal model, the spinal cord of 4 and 5 lumbar vertebrae was stained with OX-42 to confirm changes in cell shape and intensity. […] The supernatant was transferred to a new microcentrifuge, the protein concentration was measured using a BCA kit, and samples for Western blot were prepared by adding a 1X sample buffer and boiling for 5 minutes. […]

astrocytes = assay: Astrocyte activation in spinal cord of SNI model (GFAP immunohistochemistry and Western blot); type: in vivo, Sprague-Dawley rats; settings: L4-5 spinal cord
Description: as §1
The activation of astrocytes in the spinal cord, known to play an important role in the process of inducing/persisting neuropathic pain, was confirmed by immunohistochemical staining and Western blot analysis using an anti-GFAP antibody against an intermediate filament protein, Glial fibrillary acidic protein (GFAP) of astrocytes, a marker of astrocyte activation, as in Example 3-1.

ZO-1 and occludin = assay: Urothelial tight junction proteins in bladder after SCI (Western blot, immunofluorescence); type: in vivo, Sprague-Dawley rats
Source text: (§2) When bladder dysfunction occurred due to spinal cord injury, cystitis, etc., a decrease in tight junction protein in the urothelium in contact with urine occurred, which increased the permeability of the bladder wall to introduce the harmful substances into the tissue, and caused the death of the urothelium serving as a barrier, and an increase in inflammatory response in the bladder. In order to determine what effect the compound YJ102 of the present disclosure had on these pathological processes, the expression of tight junction proteins ZO-1 and occludin was confirmed by Western blot analysis and immunofluorescence staining, and the introduction of neutrophils and macrophages into the bladder was confirmed by immunofluorescence staining. Specifically, the cut bladder tissue sections were frozen in liquid nitrogen, ground in a mortar and pestle to be completely lysed, and homogenized by adding Lysis Buffer [50 mM Tris-HCl (pH 7.4), 150 mM NaCl, 2 mM MgCl2, 0.1% NP40]. The homogenized tissue sections were transferred to a microcentrifuge tube, rock at 4°C for 20 minutes, and then centrifuged at 25,000 × g for 10 minutes. The supernatant was transferred to a new microcentrifuge, the protein concentrations were measured using a BCA kit, and then samples for Western blot were prepared by adding a 1X sample buffer and boiling for 5 minutes. For Western blot, the same amounts of proteins were loaded onto SDS-PAGE, electrophored, and then transferred to a nitrocellulose membrane, reacted with primary antibodies Occludin (Invitrogen), ZO-1 (Invitrogen), ED-1 (Serotec), and β-actin (Sigma), and then blotted with secondary antibodies. In addition, for immunofluorescence staining, 10 µm-thick bladder tissue sections were treated with primary antibodies ZO-1 (Invitrogen), Occludin (Invitrogen), MPO (DAKO), and ED-1 (Serotec), respectively, and reacted according to a manufacturer's protocol, and then color-developed with secondary antibodies (Jackson immunoresearh).

[1] = tested on: neutrophils and macrophages; assay: Introduction of neutrophils and macrophages into the bladder after SCI (immunofluorescence); type: in vivo, Sprague-Dawley rats
Source text: as §2, with “For Western blot, the same amounts of proteins were loaded onto SDS-PAGE, electrophored, and then transferred to a nitrocellulose membrane, reacted with primary antibodies Occludin (Invitrogen), ZO-1 (Invitrogen), ED-1 (Serotec), and β-actin (Sigma), and then blotted with secondary antibodies. In addition, for immunofluorescence staining, 10 µm-thick bladder tissue sections were treated with primary antibodies ZO-1 (Invitrogen), Occludin (Invitrogen), MPO (DAKO), and ED-1 (Serotec), respectively, and reacted according to a manufacturer's protocol, and then color-developed with secondary antibodies (Jackson immunoresearh).” left out

Raw 264.7 cell line = assay: Inflammatory factor mRNA in LPS-treated macrophage cell line (RT-PCR); type: cell-based; settings: LPS treatment
Description: In order to determine whether YJ102 affected the production of proNGF as a ligand of p75, the expression of proNGF in the bladder was confirmed by RT-PCR, Western blot analysis, and immunofluorescence staining. In addition, for further verification, a macrophage cell line Raw 264.7 (Korea Cell Line Bank, Seoul, Korea) was stimulated with 1 µg/ml of LPS, and the effect of YJ102 on the production of proNGF was investigated. At this time, YJ102 was dissolved in DMSO and treated 30 minutes before LPS treatment.
To confirm the effect of YJ102 on the expression of inflammatory factors in the bladder after spinal cord injury, the expression of inflammatory cytokines and chemokines, COX-2, iNOS, IL-6, IL-1β, MIP-1α, MIP-1β, MIP-2α, and Gro-α in bladder tissue was confirmed by RT-PCR analysis and Western blot analysis using the primers in Table 2 above. In addition, even in the Raw 264.7 cell line, the expression was verified by RT-PCR analysis.

[2] = day 1 after spinal cord injury (SCI 1d), Western blot

CCc1ccc(N(C(=O)COC)c2nc3cc(Cl)ccc3o2)cc1 [YJ102]
microglia activation changes (OX-42 intensity, activated morphology) (microglia; 4 weeks after nerve injury, L4-L5 spinal cord, vs Vehicle): significantly reduced | amount of p-p38MAPK (microglia; spinal cord, Western blot): significantly reduced | GFAP expression intensity (astrocytes): significantly decreased | reduction in Occludin in the urothelium (ZO-1 and occludin; after spinal cord injury, immunofluorescence staining): inhibited | reduction of the amount of Occludin (ZO-1 and occludin; [2]): significantly inhibited | reduction of the amount of ZO-1 (ZO-1 and occludin; [2]): significantly inhibited | introduction of MPO-positive neutrophils into the bladder ([1]; after spinal cord injury (day 1)): significantly inhibited | introduction of ED-1-positive macrophages into the bladder ([1]; after spinal cord injury (day 7)): significantly inhibited | mRNA levels of IL-1β, TNF-α, IL-6, iNOS, and COX-2 (Raw 264.7 cell line): significantly reduced
